Measurements reported in patent publication US4783442A, “B-cell differentiating peptides” (Ortho Pharmaceutical Corporation, priority 1986, dated 1988).
Where a SMILES comes first, the peptide text is derived from it.

Experiments:
[1] = system: pro-Lyb-2 cells; assay: Induction assay: Lyb-2 expression (B-cell differentiation); type: cell-based, mouse; settings: 3 hr incubation; compared with natural bursopoietin at the same concentration
Description: To determine the activity and immunological characteristics of one of the subject peptide, certain related peptides prepared in the above Examples, and natural bursopoietin, an induction assay was carried out substantially as described in Audhya, et al., Proc. Natl. Acad. Sci. USA, 81,2847 (1984).
In brief, prothymocytes (Thy-1^-) and pro-Lyb-2 cells were coenriched from B6-Lyb-2.1 congenic mouse spleen by bovine serum albumin density gradient centrifugation (Path-O-Cyte 5, lot 35, 1 ml of 35/29/26/23/18/12%). The 26/23 and 23/18 interface layers were combined, and Thy-1^+ and Lyb-2^+ cells were removed by reaction with monoclonal Thy-1.2 and Lyb-2.1 antibodies prepared according to Scheid, et al., Immunogenetics, 9, 423-433 (1979), and adherence to plates coated with affinity-purified rabbit anti-mouse F(ab)2. The washed nonadherent cells were used for both assays. This starting population contained 30-40% prothymocytes and 30-40% pro-Lyb-2 cells (known to represent separate committed precursor populations) as described in Scheid, et al., J. Exp. Med., 147, 1727-1743 (1978).
Cells (5×10^6 cells per 0.5 ml of RPMI 1640 medium) were incubated in 5-ml plastic tubes with equal volumes of test compound in serial dilution in RPMI 1640 medium in a humidified 5% CO2 atmosphere for 3 hr. […]

[2] = system: pro-Lyb-2 cells; settings: from the referenced articles; cited from earlier work

## NCCCC[C@H](N)C(=O)N[C@@H](Cc1c[nH]cn1)C(=O)NCC(N)=O [H-LYS-HIS-GLY-NH2, L-Lysyl-L-Histidyl-Glycineamide] (H-Lys-His-Gly-NH2)
[1]
  activity in differentiation induction assay (FIG. 1): possessed the activity of the natural isolate

## ubiquitin
[2]
  induction of differentiation of T-cells and B-cells: nonselectively induce the differentiation of both T-cells and B-cells
